This is an account of results in patent US20020111360A1, “Quinazoline formulations and therapeutic use thereof” (PARKER HUGHES INSTITUTE, priority 1999, published 2002).

A short description of data set [1]: Solubility of WHI-P131 free base and chloride salt in various liquids. The format is physicochemical. The protocol: The solubility of WHI-P131 free base was measured in water, propylene glycol, polyethylene glycols (PEGs), ethanol, and triglycerides. The solubility of WHI-P131 is very poor in water. It was about 35 times more soluble in C8-C10 medium chain triglyceride (Captex 300) than in water. It was much more soluble in ethanol and hydrophilic cosolvents such as propylene glycol and PEGs.
Parallel solubility measurements were also carried out using WHI-P131 chloride salt. […] In contrast, the solubility of WHI-P131 chloride decreased drastically in all other liquids. […] This fact underscores the importance of knowing the solubility profile of both the free base and salt forms of an ionizable compound when making choices of its delivery vehicles.

The nature of data set [2]: Solubilization of WHI-P131 in water-cosolvent mixtures and micellar solutions. The class given is physicochemical. The note with it: for Solubility: aqueous with cosolvent or surfactant or cyclodextrin. The protocol: To further determine the effect of cosolvents on the solubility behavior of WHI-P131, the solubility of WHI-P131 chloride salt was carried out in binary mixtures of water-cosolvents. Solvents including ethanol, propylene glycol, and PEGs are used in several injectable formulations, and were considered here as possible vehicles for WHI-P131. […] However, at PEG concentrations greater than 70%, there was a large difference between the solubility behavior of WHI-P131 in water-PEG300 and water-PEG200 mixtures. For PEG300, the solubility continued to increase linearly with increasing PEG concentration, whereas for PEG200, a large increase in slopes occurred near 100% PEG200. Since the solubility-PEG300 concentration curve is linear over the entire range of water-PEG300 mixtures, WHI-P131 solubilized in these mixtures at concentrations below its saturation point can be used as vehicles for this compound, since their dilution will not result in drug precipitation. […] Therefore, PEG300 is more appropriate for use as a cosolvent vehicle in the formulations of WHI-P131.
Micellar solutions containing PEGylated phosphatidylethanolamines were exceptionally effective in enhancing the solubilization of WHI-P131. […] Micellar solutions using purified soya lecithin (Phospholipon 90G) were feasible when an equal or higher amount of a nonionic surfactant (such as Cremophor EL for example) was also present. With PEGylated phospholipids, the presence of Cremophor EL was not necessary to form micellar solutions. In addition, an anionic PEGylated phosphatidylethanolamine seemed to be a better solubilizer for WHI-P131 than Phospholipon (mostly phosphotidylcholine). The enhanced solubilization observed with micellar solutions was apparently due to the charge interaction between the cationic WHI-P131 and anionic PEGylated phosphatidylethanolamine.
To determine the solubilization enhancement by different types of surfactants in a more quantitative manner, solubility-surfactant concentration curves were plotted. FIG. 2 depicts the amount of solubilized WHI-P131 chloride in a solution containing 20% of PEG300, and an increasing amount of PEG2000-DPPE. […] At low surfactant concentrations (below the CMC), the drug solubilization seems to remain unchanged, then increases linearily with surfactant concentration at higher PEG2000-DPPE concentration. […] In Table 8, the slopes of the linear portions of the plot for a series of nonionic surfactants and cosolvents were used to calculate the solubilization enhancement per unit surfactant or cosolvent concentration.
The solubilization enhancement, as represented by the amount of solubilized WHI-P131 (in milligram) per gram of surfactant, are shown in Table 8 to vary with the type of surfactants used. For the three PEGylated phosphatidylethanolamines, the solubilization enhancement depended on the hydrophobic chain length and polyoxyethylene number of the PEGylated phospholipids. […] Also shown in Table 8 for comparison purposes are the solubilization enhancements produced by the use of cosolvents.

Data set [3] in a line: Solubilization of WHI-P131 in microemulsions. The format is physicochemical. The note with it: microemulsion formulation vs free base in water.
Source text: A series of ternary phase diagrams were constructed at room temperature, and several microemulsions within the single phase microemulsion region were examined for their capacity to solubilize WHI-P131. […] In this phase diagram, it can be seen that microemulsions containing up to 30% of Captex 300 were possible. These microemulsions were transparent and tolerated dilution very well when mixed with aqueous phases. In WHI-P131-containing microemulsions, the drug was first solubilized in the microemulsions chosen from the one phase region of the phase diagram with mild heating, followed by dilution with water or buffer solution at room temperature.
The microemulsion composition ME1 depicted in Table 9 was used in pharmacokinetic studies and biological activity assays. This microemulsion was prepared by first solubilizing WHI-P131 in composition A in the ternary phase diagram, followed by a dilution with water (1:9). […] ME2 was a microemulsion composition obtained from a separate phase diagram not shown. […] These microemulsions can readily be filtered through 0.2 μm filter, and stored at room temperature.

What is called melting point is the temperature of the solid-liquid transition.

Counter-ions that a name gives are not always drawn.

In turn, `COc1cc2ncnc(Nc3c(Br)cc(C)cc3Br)c2cc1OC` [P-241, 4-(2′,6′-Dibromo-4′-methylphenyl)-amino-6,7-dimethoxyquinazoline] returned a melting point of 235 to 237 °C.
The molecule `COc1cc2ncnc(Nc3c(Br)cccc3Br)c2cc1OC` [P-262, 4-(2′,6′-Dibromophenyl)-amino-6,7-dimethoxyquinazoline] returned a melting point of 243 to 246 °C.
Still for that read-out and setting: the same measure for `COc1cc2ncnc(Nc3ccc(Br)cc3Br)c2cc1OC` [P-263, 4-(2′,4′-Dibromophenyl)-amino-6,7-dimethoxyquinazoline]: 257 to 262 °C.
The same measure, in the same setting: in the case of `COc1cc2ncnc(Nc3ccc(CCO)cc3)c2cc1OC` [P-265, 4-[4′-(2″-Hydroxylethylphenyl)]-amino-6,7-dimethoxyqui-nazoline] it was 235 to 240 °C; in that of `COc1cc2ncnc(Nc3cccc(C(C)O)c3)c2cc1OC` (stereo not drawn) [P-276, 4-[3′-(1″-Hydroxyethyl)]-amino-6,7-dimethoxyquinazoline], 215 to 218 °C.
Still for that read-out and setting: the same measure for `COc1cc2ncnc(Nc3cc(-c4ccccc4)c(O)c(-c4ccccc4)c3)c2cc1OC` [P-277, 4-(4′-Hydroxy-3′,5′-diphenylphenyl)-amino-6,7-dime-hoxyquinazoline]: 255 to 257 °C.
Turning to `COc1cc2ncnc(Nc3ccc(O)cc3)c2cc1OC` [WHI-P131 Chloride salt, 4-(4′-Hydroxylphenyl)-amino-6,7-dimethoxyquinazoline], the Solubility came to 0.012 ± 0.002 mg/mL in data set [1] (Captex 300); 0.631 ± 0.007 mg/mL in data set [1] (Ethanol); 25.12 ± 0.72 mg/mL in data set [1] (PEG200); 10.10 ± 3.60 mg/mL in data set [1] (PEG300); 1.61 ± 0.09 mg/mL in data set [1] (Propylene glycol); 1.24 ± 0.09 mg/mL in data set [1] (Water). For the same molecule, the Solubility in data set [1] (Water, listed as WHI-P131 salt) was found to be 1.2 mg/mL; in data set [2] (20% PEG300 in water, chloride salt, 20% PEG300, no surfactant, read-out: Solubility in 20% PEG300), 2380 µg/mL.
On to `COc1cc2ncnc(Nc3ccc(O)cc3)c2cc1OC` [WHI-P131 Free base, 4-(4′-Hydroxylphenyl)-amino-6,7-dimethoxyquinazoline], for which the Solubility in data set [1] (Captex 300) was 0.88 ± 0.08 mg/mL; in data set [1] (Ethanol), 18.6 ± 0.5 mg/mL; in data set [1] (PEG200), over 100 mg/mL; in data set [1] (PEG300), over 185 mg/mL; in data set [1] (Propylene glycol) it was 19.5 ± 0.7 mg/mL; in data set [1] (Water) it was 0.025 mg/mL. Also, the Solubility was 1.86% in data set [1] (ethanol), “greater than 10%” in data set [1] (polyethylene glycols) and 1.95% in data set [1] (propylene glycol).
For the molecule `COc1cc2ncnc(Nc3ccc(O)cc3)c2cc1OC` [WHI-P131, 4-(4′-Hydroxylphenyl)-amino-6,7-dimethoxyquinazoline], in data set [1] (Captex 300 vs water), the “Solubility in C8-C10 medium chain triglyceride (Captex 300) relative to water” value was “about 35 times”. The Solubility result was “very poor” in data set [1] (Water) and 4700 µg/mL in data set [2] (20% PEG300 plus 3% PEG2000-DPPE micellar solution, chloride salt, 20% PEG300 plus 3% PEG2000-DPPE, read-out: Drug solubilization in cosolvent/micellar vehicle). The “Solubilized WHI-P131 (mg) per gram of surfactant or solvent” value was determined as 5.3 mg per gram in data set [2] (PEG200, Cosolvent); 5.8 mg per gram in data set [2] (PEG300, Cosolvent); 6.2 mg per gram in data set [2] (PEG400, Cosolvent); 76.6 mg per gram in data set [2] (PEG2000-PE (14:0), Micellar solution); 92.0 mg per gram in data set [2] (PEG2000-PE (16:0), Micellar solution); 37.5 mg per gram in data set [2] (PEG5000-PE (18:0), Micellar solution). Further, the “Solubilized WHI-P131 (mg) per gram of surfactant or solvent” value in data set [2] (Pluronic F-68, Micellar solution) was determined as 6.1 mg per gram. Besides, the “Solubility in 20% PEG300” value in data set [2] (chloride salt, 20% PEG300, no surfactant) was 2200 µg/mL. For the same molecule, the Total solubilization enhancement in data set [2] (cosolvent/micellar solution vs free base in water) is 190 fold; in data set [3], 110 fold.
